Assay results: ChEMBL document CHEMBL5223116, “Combination of NSAIDs with donepezil as multi-target directed ligands for the treatment of Alzheimer's disease” (Bioorg Med Chem Lett, 2022)
Calls of active or inactive are those of the source. The rule behind the calls is not given here.

Experiments:
[1] = molecular target: T1, Acetylcholinesterase (Homo sapiens, UniProt P22303); assay: Inhibition of AChE (unknown origin) by Ellman's method
[2] = molecular target: T2, Cholinesterase (Homo sapiens, UniProt P06276); assay: Inhibition of BChE (unknown origin) by Ellman's method
[3] = tested on: PC-3; assay: Neuroprotective activity against Abeta42-induced cell death in […] cells by MTT assay; assay type: functional, cell-based; settings: dose 0.1-10 µM
[4] = molecular target: T3, Prostaglandin G/H synthase 2 (Homo sapiens) (UniProt P35354); assay: Inhibition of COX-2 (unknown origin) by enzyme immunoassay
T3 sequence (whole entry): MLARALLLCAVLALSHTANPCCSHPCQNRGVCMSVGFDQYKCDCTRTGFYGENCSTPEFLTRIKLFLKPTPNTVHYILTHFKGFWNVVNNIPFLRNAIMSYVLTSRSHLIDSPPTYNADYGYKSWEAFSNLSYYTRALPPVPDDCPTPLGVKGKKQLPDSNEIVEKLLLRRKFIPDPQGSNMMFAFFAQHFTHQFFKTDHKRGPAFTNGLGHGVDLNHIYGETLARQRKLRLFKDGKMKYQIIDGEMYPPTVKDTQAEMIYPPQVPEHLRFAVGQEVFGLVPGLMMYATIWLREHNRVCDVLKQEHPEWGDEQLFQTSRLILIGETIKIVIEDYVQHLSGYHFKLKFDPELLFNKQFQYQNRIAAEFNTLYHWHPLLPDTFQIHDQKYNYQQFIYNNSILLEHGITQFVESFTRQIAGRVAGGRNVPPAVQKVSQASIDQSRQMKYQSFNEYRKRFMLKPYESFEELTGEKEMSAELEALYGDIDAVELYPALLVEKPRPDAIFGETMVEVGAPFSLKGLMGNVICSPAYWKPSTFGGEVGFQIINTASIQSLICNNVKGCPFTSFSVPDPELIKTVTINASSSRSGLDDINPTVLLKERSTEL

[5] = tested on: BV-2; assay: Antiinflammatory activity in mouse BV-2 cells assessed as decrease in LPS-induced IL-1beta secretion at 10 uM preincubated for 6 hrs followed by LPS stimulation and measured after 24 hrs by qRT-PCR analysis (reference value: 3.76); assay type: functional; settings: time 30 hrs
[6] = molecular target: Prostaglandin G/H synthase 1 (Homo sapiens) (UniProt P23219); assay: Inhibition of COX-1 (unknown origin) by enzyme immunoassay
[7] = tested on: PC-3; assay: Cytotoxicity against […] cells assessed as reduction in cell viability at 0.1 to 10 uM by MTT assay; assay type: toxicity, cell-based; settings: dose 0.1-10 µM
[8] = tested on: BV-2; assay: Antiinflammatory activity in mouse BV-2 cells assessed as decrease in LPS-induced TNFalpha secretion at 10 uM preincubated for 6 hrs followed by LPS stimulation and measured after 24 hrs by qRT-PCR analysis (reference value: 3.91); assay type: functional; settings: time 30 hrs
[9] = molecular target: T2, Cholinesterase; assay: Potency index, ratio of donepezil IC50 to test compound IC50 for BChE (unknown origin)
[10] = tested on: BV-2; assay: Antiinflammatory activity in mouse BV-2 cells assessed as decrease in LPS-induced IL-1beta secretion at 5 uM preincubated for 6 hrs followed by LPS stimulation and measured after 24 hrs by qRT-PCR analysis (reference value: 3.76); assay type: functional; settings: time 30 hrs
[11] = tested on: BV-2; assay: Antiinflammatory activity in mouse BV-2 cells assessed as decrease in LPS-induced TNFalpha secretion at 5 uM preincubated for 6 hrs followed by LPS stimulation and measured after 24 hrs by qRT-PCR analysis (reference value: 3.91); assay type: functional; settings: time 30 hrs
[12] = Stability of compound in PBS at pH 7.4 measured after 48 hrs by HPLC analysis; assay type: physicochemical; settings: buffer, pH 7.4, 48 h
[13] = molecular target: T1, Acetylcholinesterase; assay: Inhibition of AChE (unknown origin) at 10 uM by Ellman's method
[14] = molecular target: T2, Cholinesterase; assay: Inhibition of BChE (unknown origin) at 10 uM by Ellman's method

T2 sequence (P06276 whole entry): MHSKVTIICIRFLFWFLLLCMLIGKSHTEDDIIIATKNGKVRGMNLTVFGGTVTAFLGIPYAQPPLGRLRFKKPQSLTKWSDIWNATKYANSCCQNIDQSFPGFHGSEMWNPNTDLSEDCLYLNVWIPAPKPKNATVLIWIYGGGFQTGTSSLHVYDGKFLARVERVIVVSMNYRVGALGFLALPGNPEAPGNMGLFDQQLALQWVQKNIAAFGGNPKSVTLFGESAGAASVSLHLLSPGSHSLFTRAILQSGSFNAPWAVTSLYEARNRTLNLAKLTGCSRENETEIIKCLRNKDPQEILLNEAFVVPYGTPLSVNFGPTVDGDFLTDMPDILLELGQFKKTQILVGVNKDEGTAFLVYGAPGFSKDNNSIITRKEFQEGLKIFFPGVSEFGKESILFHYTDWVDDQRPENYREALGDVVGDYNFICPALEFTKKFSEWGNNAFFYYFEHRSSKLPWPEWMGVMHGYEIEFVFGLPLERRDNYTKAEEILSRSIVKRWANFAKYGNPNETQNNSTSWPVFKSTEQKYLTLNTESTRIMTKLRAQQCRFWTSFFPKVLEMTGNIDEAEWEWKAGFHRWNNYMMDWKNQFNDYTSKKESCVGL
T1 sequence (P22303 whole entry): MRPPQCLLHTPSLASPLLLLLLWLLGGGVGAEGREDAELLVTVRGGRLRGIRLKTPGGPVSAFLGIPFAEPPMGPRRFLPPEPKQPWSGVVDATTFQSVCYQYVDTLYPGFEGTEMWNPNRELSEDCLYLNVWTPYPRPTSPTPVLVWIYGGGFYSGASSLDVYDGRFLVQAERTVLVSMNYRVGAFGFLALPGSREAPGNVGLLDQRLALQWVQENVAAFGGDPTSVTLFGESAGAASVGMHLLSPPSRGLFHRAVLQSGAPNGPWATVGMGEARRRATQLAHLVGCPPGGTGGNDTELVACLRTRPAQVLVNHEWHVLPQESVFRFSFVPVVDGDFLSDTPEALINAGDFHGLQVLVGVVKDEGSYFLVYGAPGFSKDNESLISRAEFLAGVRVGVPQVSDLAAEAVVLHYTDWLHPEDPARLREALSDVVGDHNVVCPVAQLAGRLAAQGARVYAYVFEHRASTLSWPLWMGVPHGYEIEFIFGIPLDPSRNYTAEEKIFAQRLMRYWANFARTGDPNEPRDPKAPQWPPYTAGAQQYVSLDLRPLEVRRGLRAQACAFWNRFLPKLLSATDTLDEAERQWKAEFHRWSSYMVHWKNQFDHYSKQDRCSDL
Prostaglandin G/H synthase 1 (Homo sapiens), sequence (P23219 whole entry): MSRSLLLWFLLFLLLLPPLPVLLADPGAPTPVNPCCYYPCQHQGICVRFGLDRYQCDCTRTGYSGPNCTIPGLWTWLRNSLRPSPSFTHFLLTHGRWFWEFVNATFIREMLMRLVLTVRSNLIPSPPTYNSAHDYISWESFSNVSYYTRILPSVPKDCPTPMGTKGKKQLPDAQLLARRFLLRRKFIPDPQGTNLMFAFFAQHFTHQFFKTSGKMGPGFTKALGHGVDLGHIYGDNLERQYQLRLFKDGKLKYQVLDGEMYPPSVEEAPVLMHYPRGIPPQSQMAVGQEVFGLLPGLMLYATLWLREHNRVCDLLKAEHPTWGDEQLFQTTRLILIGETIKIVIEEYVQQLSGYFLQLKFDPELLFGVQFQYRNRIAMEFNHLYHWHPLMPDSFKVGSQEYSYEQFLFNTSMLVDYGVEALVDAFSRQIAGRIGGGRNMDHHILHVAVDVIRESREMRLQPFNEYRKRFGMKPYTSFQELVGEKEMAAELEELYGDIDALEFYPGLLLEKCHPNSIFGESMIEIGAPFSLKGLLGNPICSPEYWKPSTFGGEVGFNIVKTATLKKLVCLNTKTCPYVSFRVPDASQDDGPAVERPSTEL

| SMILES | IC50 [1] [nM] | IC50 [2] [nM] | also measured |
| --- | --- | --- | --- |
| COc1cc2c(cc1OC)/C(=N\NC(=O)CCNC(=O)C(C)c1ccc(CC(C)C)cc1)C(CC1CCN(Cc3ccccc3)CC1)C2 (centres undefined) | 4850 | 11600 |  |
| COc1ccc2cc([C@H](C)C(=O)N/N=C3\c4cc(OC)c(OC)cc4CC3CC3CCN(Cc4ccccc4)CC3)ccc2c1 (some centres undefined) | 150 | 880 |  |
| COc1cc2c(cc1OC)/C(=N\NC(=O)C(C)c1ccc(CC(C)C)cc1)C(CC1CCN(Cc3ccccc3)CC1)C2 (centres undefined) | 15 | 800 | Activity [3]: Dose-Dependent Effect; inhibition [4]: Dose-Dependent Effect; Activity [5]: 0.78; inhibition [6]: Dose-Dependent Effect; Activity [7]: Non-Toxic; Activity [8]: 1.12; Ratio IC50 [9]: 5; Activity [10]: 1.19; Activity [11]: 1.51; Stability [12]: Stable |
| COc1cc2c(cc1OC)/C(=N\NC(=O)CNC(=O)C(C)c1ccc(CC(C)C)cc1)C(CC1CCN(Cc3ccccc3)CC1)C2 (centres undefined) | 1190 | 1640 |  |
| COc1cc2c(cc1OC)/C(=N\NC(=O)C(CC(C)C)NC(=O)C(C)c1ccc(CC(C)C)cc1)C(CC1CCN(Cc3ccccc3)CC1)C2 (centres undefined) | 350 | 20200 |  |
| COc1cc2c(cc1OC)/C(=N\N)C(CC1CCN(Cc3ccccc3)CC1)C2 (centres undefined) | 190 | 2540 |  |
| COc1ccc2c(c1)c(CC(=O)N/N=C1\c3cc(OC)c(OC)cc3CC1CC1CCN(Cc3ccccc3)CC1)c(C)n2C(=O)c1ccc(Cl)cc1 (centres undefined) | 510 | 8530 |  |
| CC(C)Cc1ccc(C(C)C(=O)O)cc1 (centres undefined) |  |  | inhibition [13]: inactive; inhibition [14]: inactive |
| COc1cc2c(cc1OC)/C(=N\NC(=O)C(NC(=O)C(C)c1ccc(CC(C)C)cc1)C(C)C)C(CC1CCN(Cc3ccccc3)CC1)C2 (centres undefined) | 400 | 3230 |  |
| COc1ccc2c(c1)c(CC(=O)O)c(C)n2C(=O)c1ccc(Cl)cc1 |  |  | inhibition [13]: inactive; inhibition [14]: inactive |
| COc1cc2c(cc1OC)/C(=N\NC(=O)c1ccccc1OC(C)=O)C(CC1CCN(Cc3ccccc3)CC1)C2 (centres undefined) | 46 | 800 |  |
| CC(=O)Oc1ccccc1C(=O)O |  |  | inhibition [13]: inactive; inhibition [14]: inactive |
